This note sets out measurements from patent publication US8865734B2 (priority 2010, dated 2014).

The test system of the test is multi-drug resistant (MDR) clinical isolates. Briefly: microbe, parasite or virus in culture. It is filed as cell-based, M. tuberculosis. The conditions noted are these: for level of activity relative to MFX: MDR isolates and H37Rv; for MIC / MIC80: Mycobacterium tuberculosis.

Converted amounts (≈) assume the structure as drawn. Some results are limits rather than exact numbers.

Take `CCc1nc2ccccn2c1C(=O)NCc1ccc(Oc2ccccc2)cc1` [Compound 54, 2-Ethyl-N-(4-phenoxybenzyl)imidazo[1,2-a]pyridine-3-carboxamide]: the “level of activity relative to MFX” value is “comparable to or better than MFX” and the MIC was not above 0.625 µM. The MIC80 (MDR isolate #13) turned out to be 0.156 µM (≈ 0.058 µg/mL). In addition, the MIC80 (MDR isolate #33) was determined as 0.156 µM (≈ 0.058 µg/mL). For the same molecule, the MIC80 (MDR isolate #48) came to 0.156 µM (≈ 0.058 µg/mL). The MIC80 (MDR isolate #61) amounted to 0.156 µM (≈ 0.058 µg/mL). The same molecule came in with an MIC80 (MDR isolate #80) of 0.156 µM (≈ 0.058 µg/mL). In addition, where the note is “MDR isolate #125”, the MIC80 was determined as 0.312 µM (≈ 0.116 µg/mL). The MIC80 (MDR isolate #137) was 0.625 µM (≈ 0.232 µg/mL). Further, the MIC80 (MDR isolate #143) turned out to be 0.312 µM (≈ 0.116 µg/mL). In addition, the MIC80 (MDR isolate #146) is 0.312 µM (≈ 0.116 µg/mL). For the setting “MDR isolate #171”, the MIC80 amounted to 0.312 µM (≈ 0.116 µg/mL).

Turning to `CCc1nc2ccccn2c1C(=O)NCc1ccc(-c2ccccc2)cc1` [Compound 47, N-(Biphenyl-4-ylmethyl)-2-ethylimidazo[1,2-a]pyridine-3-carboxamide], the “level of activity relative to MFX” value is “comparable to or better than MFX” and the MIC is not above 1.25 µM. The molecule further yielded an MIC80 (MDR isolate #13) of 0.312 µM (≈ 0.111 µg/mL). Moreover, the MIC80 (MDR isolate #33) came to 0.312 µM (≈ 0.111 µg/mL). The molecule further came in with an MIC80 (MDR isolate #48) of 0.312 µM (≈ 0.111 µg/mL). This molecule also gave an MIC80 (MDR isolate #61) of 0.312 µM (≈ 0.111 µg/mL). The molecule further showed an MIC80 (MDR isolate #80) of 0.312 µM (≈ 0.111 µg/mL). This molecule also displayed an MIC80 (MDR isolate #125) of 0.625 µM (≈ 0.222 µg/mL). The MIC80 (MDR isolate #137) stood at 1.25 µM (≈ 0.444 µg/mL). For the setting “MDR isolate #143”, this molecule yielded an MIC80 of 1.25 µM (≈ 0.444 µg/mL). The MIC80 (MDR isolate #146) is 0.156 µM (≈ 0.0555 µg/mL). Also, the MIC80 (MDR isolate #171) came out at 1.25 µM (≈ 0.444 µg/mL).

As for `NNC(=O)c1ccncc1` [INH, Isoniazid, reference compound], the MIC80 amounted to 5 µM (≈ 0.686 µg/mL) (MDR isolate #13); 10 µM (≈ 1.37 µg/mL) (MDR isolate #33); 10 µM (≈ 1.37 µg/mL) (MDR isolate #48); 20 µM (≈ 2.74 µg/mL) (MDR isolate #61); 5 µM (≈ 0.686 µg/mL) (MDR isolate #80); 10 µM (≈ 1.37 µg/mL) (MDR isolate #125). Besides, the MIC80 reads like this: (MDR isolate #137) 20 µM (≈ 2.74 µg/mL); (MDR isolate #143) 10 µM (≈ 1.37 µg/mL); (MDR isolate #146) 20 µM (≈ 2.74 µg/mL); (MDR isolate #171) 5 µM (≈ 0.686 µg/mL). The “resistance of the MDR strains” value (all MDR tested strains) is “resistance was confirmed”.
